Reference: ChEMBL document CHEMBL1240372, “Murine model of a disseminated infection by the novel fungus Fonsecaea monophora and successful treatment with posaconazole” (Antimicrob Agents Chemother, 2010)
≈ marks a conversion by molar mass, not a printed value. Calls of active or inactive are those of the source. No cut-off for these calls is given here.

How the values were obtained:
[1] = tested on: Fonsecaea monophora; assay: Antifungal activity against 2 x 10^5 CFU Fonsecaea monophora CBS 117236 infected in […] OF1 mouse assessed as reduction in fungal load in spleen at 1.5 mg/kg, ip qd administered 1 day after infection for 7 days; type: functional, organism-based; parameters: dose 1.5 mg/kg
[2] = tested on: Fonsecaea monophora; assay: Antifungal activity against 2 x 10^5 CFU Fonsecaea monophora CBS 117236 infected in […] OF1 mouse assessed as reduction in fungal load in kidney at 1.5 mg/kg, ip qd administered 1 day after infection for 7 days; type: functional, organism-based; parameters: dose 1.5 mg/kg
[3] = tested on: Fonsecaea monophora; assay: Antifungal activity against 1 x 10^6 CFU Fonsecaea monophora CBS 269.37 infected in OF1 mouse assessed as increase in mouse survival at 1.5 mg/kg, ip qd administered 1 day after infection for 7 days; type: functional, organism-based; parameters: dose 1.5 mg/kg
[4] = tested on: Fonsecaea monophora; assay: Antifungal activity against 2 x 10^5 CFU Fonsecaea monophora CBS 117236 infected in […] OF1 mouse assessed as reduction in fungal load in lung at 1.5 mg/kg, ip qd administered 1 day after infection for 7 days; type: functional, organism-based; parameters: dose 1.5 mg/kg
[5] = tested on: Fonsecaea monophora; assay: Antifungal activity against Fonsecaea monophora CBS 269.37; type: functional
[6] = Drug level in 1 x 10^6 CFU Fonsecaea monophora CBS 269.37 infected OF1 mouse serum at 1.5 mg/kg, ip qd administered 1 day after infection measured on day 6 after 4 hrs of last treatment; type: ADME, organism-based; parameters: dose 1.5 mg/kg, route intraperitoneal; details: read-out: Drug uptake
[7] = tested on: Fonsecaea monophora; assay: Antifungal activity against 1 x 10^6 CFU Fonsecaea monophora CBS 269.37 infected in […] OF1 mouse assessed as reduction in fungal load in kidney at 1.5 mg/kg, ip qd administered 1 day after infection for 7 days; type: functional, organism-based; parameters: dose 1.5 mg/kg
[8] = tested on: Fonsecaea monophora; assay: Antifungal activity against 1 x 10^6 CFU Fonsecaea monophora CBS 269.37 infected in […] OF1 mouse assessed as reduction in fungal load in lung at 1.5 mg/kg, ip qd administered 1 day after infection for 7 days; type: functional, organism-based; parameters: dose 1.5 mg/kg
[9] = tested on: Fonsecaea monophora; assay: Antifungal activity against 1 x 10^6 CFU Fonsecaea monophora CBS 269.37 infected in […] OF1 mouse assessed as reduction in fungal load in spleen at 1.5 mg/kg, ip qd administered 1 day after infection for 7 days; type: functional, organism-based; parameters: dose 1.5 mg/kg
[10] = tested on: Fonsecaea monophora; assay: Antifungal activity against Fonsecaea monophora CBS 117236; type: functional
[11] = tested on: Fonsecaea monophora; assay: Antifungal activity against 1 x 10^6 CFU Fonsecaea monophora CBS 269.37 infected in po dosed OF1 mouse assessed as reduction in fungal load in kidney at 25 mg/kg, po bid administered 1 day after infection for 7 days; type: functional, organism-based; parameters: dose 25 mg/kg
[12] = tested on: Fonsecaea monophora; assay: Antifungal activity against 1 x 10^6 CFU Fonsecaea monophora CBS 269.37 infected in OF1 mouse assessed as increase in mouse survival at 25 mg/kg, po bid administered 1 day after infection for 7 days; type: functional, organism-based; parameters: dose 25 mg/kg
[13] = tested on: Fonsecaea monophora; assay: Antifungal activity against 2 x 10^5 CFU Fonsecaea monophora CBS 117236 infected in po dosed OF1 mouse assessed as reduction in fungal load in kidney at 25 mg/kg, po bid administered 1 day after infection for 7 days; type: functional, organism-based; parameters: dose 25 mg/kg
[14] = tested on: Fonsecaea monophora; assay: Antifungal activity against 1 x 10^6 CFU Fonsecaea monophora CBS 269.37 infected in po dosed OF1 mouse assessed as reduction in fungal load in lung at 25 mg/kg, po bid administered 1 day after infection for 7 days; type: functional, organism-based; parameters: dose 25 mg/kg
[15] = tested on: Fonsecaea monophora; assay: Antifungal activity against 1 x 10^6 CFU Fonsecaea monophora CBS 269.37 infected in po dosed OF1 mouse assessed as reduction in fungal load in spleen at 25 mg/kg, po bid administered 1 day after infection for 7 days; type: functional, organism-based; parameters: dose 25 mg/kg
[16] = tested on: Fonsecaea monophora; assay: Antifungal activity against 2 x 10^5 CFU Fonsecaea monophora CBS 117236 infected in po dosed OF1 mouse assessed as reduction in fungal load in lung at 25 mg/kg, po bid administered 1 day after infection for 7 days; type: functional, organism-based; parameters: dose 25 mg/kg
[17] = Drug level in 1 x 10^6 CFU Fonsecaea monophora CBS 269.37 infected OF1 mouse serum at 50 mg/kg, po bid administered 1 day after infection measured on day 6 after 4 hrs of last treatment; type: ADME, organism-based; parameters: dose 50 mg/kg, route oral; details: read-out: Drug uptake
[18] = Drug level in 1 x 10^6 CFU Fonsecaea monophora CBS 269.37 infected OF1 mouse brain at 50 mg/kg, po bid administered 1 day after infection measured on day 6 after 4 hrs of last treatment; type: ADME, organism-based; parameters: dose 50 mg/kg, route oral; details: read-out: Drug uptake
[19] = tested on: Fonsecaea monophora; assay: Antifungal activity against 2 x 10^5 CFU Fonsecaea monophora CBS 117236 infected in OF1 mouse assessed as increase in mouse survival at 25 mg/kg, po bid administered 1 day after infection for 7 days; type: functional, organism-based; parameters: dose 25 mg/kg
[20] = tested on: Fonsecaea monophora; assay: Antifungal activity against 2 x 10^5 CFU Fonsecaea monophora CBS 117236 infected in po dosed OF1 mouse assessed as reduction in fungal load in spleen at 25 mg/kg, po bid administered 1 day after infection for 7 days; type: functional, organism-based; parameters: dose 25 mg/kg
[21] = tested on: Fonsecaea monophora; assay: Antifungal activity against 1 x 10^6 CFU Fonsecaea monophora CBS 269.37 infected in po dosed OF1 mouse assessed as reduction in fungal load in kidney compound administered qd 1 day after infection for 7 days; type: functional, organism-based
[22] = tested on: Fonsecaea monophora; assay: Antifungal activity against 2 x 10^5 CFU Fonsecaea monophora CBS 117236 infected in OF1 mouse assessed as increase in mouse body weight at 10 mg/kg, po qd administered 1 day after infection for 7 days; type: functional, organism-based; parameters: dose 10 mg/kg
[23] = tested on: Fonsecaea monophora; assay: Antifungal activity against 2 x 10^5 CFU Fonsecaea monophora CBS 117236 infected in po dosed OF1 mouse assessed as reduction in fungal load in spleen compound administered qd 1 day after infection for 7 days; type: functional, organism-based
[24] = tested on: Fonsecaea monophora; assay: Antifungal activity against 2 x 10^5 CFU Fonsecaea monophora CBS 117236 infected in OF1 mouse assessed as increase in mouse survival at 40 mg/kg, po qd administered 1 day after infection for 7 days; type: functional, organism-based; parameters: dose 40 mg/kg
[25] = Drug level in 1 x 10^6 CFU Fonsecaea monophora CBS 269.37 infected OF1 mouse brain at 40 mg/kg, po qd administered 1 day after infection measured on day 6 after 4 hrs of last treatment; type: ADME, organism-based; parameters: dose 40 mg/kg, route oral; details: read-out: Drug uptake
[26] = tested on: Fonsecaea monophora; assay: Antifungal activity against 2 x 10^5 CFU Fonsecaea monophora CBS 117236 infected in OF1 mouse assessed as increase in mouse survival at 20 mg/kg, po qd administered 1 day after infection for 7 days; type: functional, organism-based; parameters: dose 20 mg/kg
[27] = Drug level in 1 x 10^6 CFU Fonsecaea monophora CBS 269.37 infected OF1 mouse brain at 20 mg/kg, po qd administered 1 day after infection measured on day 6 after 4 hrs of last treatment; type: ADME, organism-based; parameters: dose 20 mg/kg, route oral; details: read-out: Drug uptake
[28] = tested on: Fonsecaea monophora; assay: Antifungal activity against 1 x 10^6 CFU Fonsecaea monophora CBS 269.37 infected in po dosed OF1 mouse assessed as reduction in fungal load in spleen compound administered qd 1 day after infection for 7 days; type: functional, organism-based
[29] = tested on: Fonsecaea monophora; assay: Antifungal activity against 2 x 10^5 CFU Fonsecaea monophora CBS 117236 infected in po dosed OF1 mouse assessed as reduction in fungal load in brain compound administered qd 1 day after infection for 7 days; type: functional, organism-based
[30] = Drug level in 1 x 10^6 CFU Fonsecaea monophora CBS 269.37 infected OF1 mouse serum at 40 mg/kg, po qd administered 1 day after infection measured on day 6 after 4 hrs of last treatment; type: ADME, organism-based; parameters: dose 40 mg/kg, route oral; details: read-out: Drug uptake
[31] = tested on: Fonsecaea monophora; assay: Antifungal activity against 1 x 10^6 CFU Fonsecaea monophora CBS 269.37 infected in OF1 mouse assessed as increase in mouse survival at 40 mg/kg, po qd administered 1 day after infection for 7 days; type: functional, organism-based; parameters: dose 40 mg/kg
[32] = tested on: Fonsecaea monophora; assay: Antifungal activity against 2 x 10^5 CFU Fonsecaea monophora CBS 117236 infected in OF1 mouse assessed as increase in mouse body weight at 20 mg/kg, po qd administered 1 day after infection for 7 days; type: functional, organism-based; parameters: dose 20 mg/kg
[33] = tested on: Fonsecaea monophora; assay: Antifungal activity against 1 x 10^6 CFU Fonsecaea monophora CBS 269.37 infected in po dosed OF1 mouse assessed as reduction in fungal load in lung compound administered qd 1 day after infection for 7 days; type: functional, organism-based
[34] = Drug level in 1 x 10^6 CFU Fonsecaea monophora CBS 269.37 infected OF1 mouse serum at 20 mg/kg, po qd administered 1 day after infection measured on day 6 after 4 hrs of last treatment; type: ADME, organism-based; parameters: dose 20 mg/kg, route oral; details: read-out: Drug uptake
[35] = tested on: Fonsecaea monophora; assay: Antifungal activity against 2 x 10^5 CFU Fonsecaea monophora CBS 117236 infected in OF1 mouse assessed as increase in mouse survival at 10 mg/kg, po qd administered 1 day after infection for 7 days; type: functional, organism-based; parameters: dose 10 mg/kg
[36] = tested on: Fonsecaea monophora; assay: Antifungal activity against 2 x 10^5 CFU Fonsecaea monophora CBS 117236 infected in po dosed OF1 mouse assessed as reduction in fungal load in lung compound administered qd 1 day after infection for 7 days; type: functional, organism-based
[37] = tested on: Fonsecaea monophora; assay: Antifungal activity against 1 x 10^6 CFU Fonsecaea monophora CBS 269.37 infected in po dosed OF1 mouse assessed as reduction in fungal load in brain compound administered qd 1 day after infection for 7 days; type: functional, organism-based
[38] = tested on: Fonsecaea monophora; assay: Antifungal activity against 2 x 10^5 CFU Fonsecaea monophora CBS 117236 infected in po dosed OF1 mouse assessed as reduction in fungal load in kidney compound administered qd 1 day after infection for 7 days; type: functional, organism-based
[39] = tested on: Fonsecaea monophora; assay: Antifungal activity against 1 x 10^6 CFU Fonsecaea monophora CBS 269.37 infected in OF1 mouse assessed as increase in mouse survival at 20 mg/kg, po qd administered 1 day after infection for 7 days; type: functional, organism-based; parameters: dose 20 mg/kg
[40] = Drug level in 1 x 10^6 CFU Fonsecaea monophora CBS 269.37 infected OF1 mouse brain at 10 mg/kg, po qd administered 1 day after infection measured on day 6 after 4 hrs of last treatment; type: ADME, organism-based; parameters: dose 10 mg/kg, route oral; details: read-out: Drug uptake
[41] = Drug level in 1 x 10^6 CFU Fonsecaea monophora CBS 269.37 infected OF1 mouse serum at 10 mg/kg, po qd administered 1 day after infection measured on day 6 after 4 hrs of last treatment; type: ADME, organism-based; parameters: dose 10 mg/kg, route oral; details: read-out: Drug uptake

SMILES: C[C@@H]1[C@H](O)[C@@H](C)/C=C/C=C/C=C/C=C/C=C/C=C/C=C/[C@H](O[C@@H]2O[C@H](C)[C@@H](O)[C@H](N)[C@@H]2O)C[C@@H]2O[C@](O)(C[C@@H](O)C[C@@H](O)[C@H](O)CC[C@@H](O)C[C@@H](O)CC(=O)O[C@H]1C)C[C@H](O)[C@H]2C(=O)O [AMPHOTERICIN B]
- Activity [1]: Active
- Activity [2]: Active
- Activity [3]: Active
- Activity [4]: Active
- MIC [5]: 1 µg/mL (≈ 1.08 µM)
- concentration at 4 h [6]: 6450 ng/mL
- Activity [7]: Active
- Activity [8]: Active
- Activity [9]: Active
- MIC [10]: 1 µg/mL (≈ 1.08 µM)

SMILES: CCC(C)n1ncn(-c2ccc(N3CCN(c4ccc(OCC5COC(Cn6cncn6)(c6ccc(Cl)cc6Cl)O5)cc4)CC3)cc2)c1=O (stereo not given) [ITRACONAZOLE]
- Activity [11]: Active
- Activity [12]: inactive
- Activity [13]: Active
- Activity [14]: Active
- Activity [15]: Active
- Activity [16]: Active
- MIC [5]: 0.5 µg/mL (≈ 0.709 µM)
- concentration at 4 h [17]: 7320 ng/mL
- concentration at 4 h [18]: 6880 ng/g
- MIC [10]: 0.25 µg/mL (≈ 0.354 µM)
- Activity [19]: inactive
- Activity [20]: Active

SMILES: CC[C@@H]([C@H](C)O)n1ncn(-c2ccc(N3CCN(c4ccc(OC[C@@H]5CO[C@@](Cn6cncn6)(c6ccc(F)cc6F)C5)cc4)CC3)cc2)c1=O [POSACONAZOLE]
- Activity [21]: Dose-dependent effect
- Activity [22]: Active
- Activity [23]: Dose-dependent effect
- Activity [24]: Active
- concentration at 4 h [25]: 6730 ng/g
- Activity [26]: Active
- concentration at 4 h [27]: 2840 ng/g
- Activity [28]: Dose-dependent effect
- MIC [5]: 0.25 µg/mL (≈ 0.357 µM)
- Activity [29]: Dose-dependent effect
- concentration at 4 h [30]: 9720 ng/mL
- Activity [31]: Active
- Activity [32]: Active
- Activity [33]: Dose-dependent effect
- MIC [10]: 0.12 µg/mL (≈ 0.171 µM)
- concentration at 4 h [34]: 6350 ng/mL
- Activity [35]: Active
- Activity [36]: Dose-dependent effect
- Activity [37]: Dose-dependent effect
- Activity [38]: Dose-dependent effect
- Activity [39]: Active
- concentration at 4 h [40]: 2020 ng/g
- concentration at 4 h [41]: 5170 ng/mL
